This is an account of results in article PMC8179002, “Inhibitors of thiol-mediated uptake” (Chemical Science, 2020).

Structures are written as SMILES. Read-outs that look alike come from different tables or passages of the source.

The data set has as its system HeLa Kyoto cells. Kind of data set: Relative cell viability in HCHT screening (propidium iodide negative nuclei count). In kind it is cell-based. To be noted: HeLa, removal, tinc 0.5 h with 1 (10 µM), read-out: GI50, concentration causing 50% cell growth inhibition. The method, boiled down: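 HeLa cells pre-incubated with inhibitors at varying concentrations and times, inhibitors removed (or retained in co-incubation variant), then fluorescent reporter added. Live cells counted by automated microscopy as propidium iodide-negative nuclei, normalised to reporter-only wells; GI50 and Hill coefficient fitted from duplicates.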

In the case of `[O-][S+]1CC(O)C(O)CS1` (stereo not drawn) [compound 17], the GI50 (tpre 1 h with inhibitor) is 710 ± 50 µM, the GI50 (tpre 2 h with inhibitor) turned out to be 730 ± 10 µM and the GI50 (tpre 4 h with inhibitor) is around 500 µM.
